Key:
Assay in all cases: radiometric filter-binding kinase assay, Kinase HotSpot
Details in all cases: compound 0.5 µM; ATP 10 µM
[1] = target: DYRK3 (human) (UniProt O43781)
[2] = target: MAP3K8 (human) (UniProt P41279)
[3] = target: MAP3K3 (human) (UniProt Q99759)
[4] = target: CAMK2A (human) (UniProt Q9UQM7)
[5] = target: AURKC (human) (UniProt Q9UQB9)
[6] = target: PRKD1 (human) (UniProt Q15139)
[7] = target: MAPK11 (human) (UniProt Q15759)
[8] = target: BTK (human) (UniProt Q06187)
[9] = target: PRKD3 (human) (UniProt O94806)
[10] = target: INSR (human) (UniProt P06213)
[11] = target: EPHA4 (human) (UniProt P54764)
[12] = target: MAP4K2 (human) (UniProt Q12851)
[13] = target: TAOK3 (human) (UniProt Q9H2K8)
TAOK3 (human), sequence (Q9H2K8 whole entry, looked up): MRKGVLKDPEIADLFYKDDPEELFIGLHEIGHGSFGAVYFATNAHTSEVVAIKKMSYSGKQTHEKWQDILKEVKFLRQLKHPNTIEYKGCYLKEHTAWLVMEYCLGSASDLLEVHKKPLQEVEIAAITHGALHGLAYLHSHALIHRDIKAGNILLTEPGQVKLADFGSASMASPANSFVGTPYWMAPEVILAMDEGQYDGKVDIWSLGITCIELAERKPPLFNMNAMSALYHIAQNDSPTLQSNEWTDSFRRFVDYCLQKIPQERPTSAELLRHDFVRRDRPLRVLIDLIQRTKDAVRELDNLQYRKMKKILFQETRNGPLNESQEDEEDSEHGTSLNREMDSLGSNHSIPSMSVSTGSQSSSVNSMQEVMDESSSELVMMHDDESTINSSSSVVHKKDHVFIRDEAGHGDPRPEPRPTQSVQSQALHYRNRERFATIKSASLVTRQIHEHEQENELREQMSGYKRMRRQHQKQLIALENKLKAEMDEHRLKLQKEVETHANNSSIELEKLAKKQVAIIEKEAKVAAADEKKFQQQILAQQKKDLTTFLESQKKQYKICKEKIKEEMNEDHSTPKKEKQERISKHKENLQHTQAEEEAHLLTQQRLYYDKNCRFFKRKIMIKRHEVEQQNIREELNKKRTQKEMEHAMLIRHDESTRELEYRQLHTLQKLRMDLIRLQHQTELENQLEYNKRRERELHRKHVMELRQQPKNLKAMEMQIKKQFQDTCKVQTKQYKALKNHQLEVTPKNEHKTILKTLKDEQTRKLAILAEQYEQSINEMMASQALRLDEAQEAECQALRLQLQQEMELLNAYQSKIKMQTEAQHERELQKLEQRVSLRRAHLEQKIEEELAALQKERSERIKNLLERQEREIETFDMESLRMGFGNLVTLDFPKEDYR

[14] = target: MAP3K14 (human) (UniProt Q99558)
[15] = target: PTK2B (human) (UniProt Q14289)
[16] = target: STK33 (human) (UniProt Q9BYT3)
[17] = target: TYK2 JH1 catalytic (human) (UniProt P29597)
[18] = target: CDK2 CCNA2 (human) (UniProt P24941+P20248)
CDK2 CCNA2 (human), sequence (P20248 whole entry, looked up, other chains not shown): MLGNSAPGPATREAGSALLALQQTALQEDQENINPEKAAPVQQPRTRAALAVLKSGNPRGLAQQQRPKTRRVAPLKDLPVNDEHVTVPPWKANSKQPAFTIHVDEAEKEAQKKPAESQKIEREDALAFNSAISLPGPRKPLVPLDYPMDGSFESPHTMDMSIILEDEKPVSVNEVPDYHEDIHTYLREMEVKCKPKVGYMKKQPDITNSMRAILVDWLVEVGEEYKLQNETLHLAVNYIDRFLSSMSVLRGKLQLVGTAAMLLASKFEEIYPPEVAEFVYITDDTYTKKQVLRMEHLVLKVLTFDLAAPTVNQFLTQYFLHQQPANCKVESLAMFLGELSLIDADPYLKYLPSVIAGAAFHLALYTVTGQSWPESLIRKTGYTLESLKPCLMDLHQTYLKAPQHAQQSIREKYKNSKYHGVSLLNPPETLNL

[19] = target: PDGFRB (human) (UniProt P09619)
[20] = target: CAMK2D (human) (UniProt Q13557)
CAMK2D (human), sequence (Q13557 whole entry, looked up): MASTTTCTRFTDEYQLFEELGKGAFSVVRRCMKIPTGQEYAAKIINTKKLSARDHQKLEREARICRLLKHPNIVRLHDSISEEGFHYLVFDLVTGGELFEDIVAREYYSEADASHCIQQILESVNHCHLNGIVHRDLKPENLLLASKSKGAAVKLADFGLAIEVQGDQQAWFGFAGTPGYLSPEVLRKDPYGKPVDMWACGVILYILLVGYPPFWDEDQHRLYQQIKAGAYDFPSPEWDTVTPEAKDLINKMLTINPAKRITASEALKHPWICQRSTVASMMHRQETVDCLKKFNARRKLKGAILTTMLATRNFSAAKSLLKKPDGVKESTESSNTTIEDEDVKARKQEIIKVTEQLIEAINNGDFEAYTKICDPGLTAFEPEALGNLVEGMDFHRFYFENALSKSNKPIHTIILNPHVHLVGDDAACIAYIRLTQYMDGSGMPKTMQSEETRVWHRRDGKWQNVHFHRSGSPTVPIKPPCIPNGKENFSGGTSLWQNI

[21] = target: CSK (human) (UniProt P41240)
[22] = target: MAP3K5 (human) (UniProt Q99683)
[23] = target: DAPK1 (human) (UniProt P53355)
[24] = target: CAMK1D (human) (UniProt Q8IU85)
[25] = target: AXL (human) (UniProt P30530)
[26] = target: SLK (human) (UniProt Q9H2G2)
[27] = target: FER (human) (UniProt P16591)
[28] = target: PBK (human) (UniProt Q96KB5)
[29] = target: STK10 (human) (UniProt O94804)
[30] = target: PAK6 (human) (UniProt Q9NQU5)
[31] = target: SRPK2 (human) (UniProt P78362)
[32] = target: LCK (human) (UniProt P06239)
[33] = target: CDK6 CCND1 (human) (UniProt Q00534+P24385)
[34] = target: NEK11 (human) (UniProt Q8NG66)
[35] = target: AKT3 (human) (UniProt Q9Y243)
[36] = target: MAPK8 (human) (UniProt P45983)
MAPK8 (human), sequence (P45983 whole entry, looked up): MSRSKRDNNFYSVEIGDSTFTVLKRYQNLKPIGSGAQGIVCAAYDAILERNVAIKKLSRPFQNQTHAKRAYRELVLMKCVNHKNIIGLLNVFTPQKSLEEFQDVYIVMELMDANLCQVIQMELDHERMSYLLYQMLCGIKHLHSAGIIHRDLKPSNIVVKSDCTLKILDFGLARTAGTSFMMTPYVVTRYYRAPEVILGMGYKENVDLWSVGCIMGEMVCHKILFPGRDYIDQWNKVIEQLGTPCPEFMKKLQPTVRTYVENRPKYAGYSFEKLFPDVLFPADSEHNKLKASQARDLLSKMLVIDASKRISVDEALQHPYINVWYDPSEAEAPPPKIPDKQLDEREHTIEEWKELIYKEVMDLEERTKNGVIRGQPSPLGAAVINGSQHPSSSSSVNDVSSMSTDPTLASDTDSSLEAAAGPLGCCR

[37] = target: ACVR1B (human) (UniProt P36896)
[38] = target: CSNK2A1 (human) (UniProt P68400)
[39] = target: ROCK1 (human) (UniProt Q13464)
ROCK1 (human), sequence (Q13464 whole entry, looked up): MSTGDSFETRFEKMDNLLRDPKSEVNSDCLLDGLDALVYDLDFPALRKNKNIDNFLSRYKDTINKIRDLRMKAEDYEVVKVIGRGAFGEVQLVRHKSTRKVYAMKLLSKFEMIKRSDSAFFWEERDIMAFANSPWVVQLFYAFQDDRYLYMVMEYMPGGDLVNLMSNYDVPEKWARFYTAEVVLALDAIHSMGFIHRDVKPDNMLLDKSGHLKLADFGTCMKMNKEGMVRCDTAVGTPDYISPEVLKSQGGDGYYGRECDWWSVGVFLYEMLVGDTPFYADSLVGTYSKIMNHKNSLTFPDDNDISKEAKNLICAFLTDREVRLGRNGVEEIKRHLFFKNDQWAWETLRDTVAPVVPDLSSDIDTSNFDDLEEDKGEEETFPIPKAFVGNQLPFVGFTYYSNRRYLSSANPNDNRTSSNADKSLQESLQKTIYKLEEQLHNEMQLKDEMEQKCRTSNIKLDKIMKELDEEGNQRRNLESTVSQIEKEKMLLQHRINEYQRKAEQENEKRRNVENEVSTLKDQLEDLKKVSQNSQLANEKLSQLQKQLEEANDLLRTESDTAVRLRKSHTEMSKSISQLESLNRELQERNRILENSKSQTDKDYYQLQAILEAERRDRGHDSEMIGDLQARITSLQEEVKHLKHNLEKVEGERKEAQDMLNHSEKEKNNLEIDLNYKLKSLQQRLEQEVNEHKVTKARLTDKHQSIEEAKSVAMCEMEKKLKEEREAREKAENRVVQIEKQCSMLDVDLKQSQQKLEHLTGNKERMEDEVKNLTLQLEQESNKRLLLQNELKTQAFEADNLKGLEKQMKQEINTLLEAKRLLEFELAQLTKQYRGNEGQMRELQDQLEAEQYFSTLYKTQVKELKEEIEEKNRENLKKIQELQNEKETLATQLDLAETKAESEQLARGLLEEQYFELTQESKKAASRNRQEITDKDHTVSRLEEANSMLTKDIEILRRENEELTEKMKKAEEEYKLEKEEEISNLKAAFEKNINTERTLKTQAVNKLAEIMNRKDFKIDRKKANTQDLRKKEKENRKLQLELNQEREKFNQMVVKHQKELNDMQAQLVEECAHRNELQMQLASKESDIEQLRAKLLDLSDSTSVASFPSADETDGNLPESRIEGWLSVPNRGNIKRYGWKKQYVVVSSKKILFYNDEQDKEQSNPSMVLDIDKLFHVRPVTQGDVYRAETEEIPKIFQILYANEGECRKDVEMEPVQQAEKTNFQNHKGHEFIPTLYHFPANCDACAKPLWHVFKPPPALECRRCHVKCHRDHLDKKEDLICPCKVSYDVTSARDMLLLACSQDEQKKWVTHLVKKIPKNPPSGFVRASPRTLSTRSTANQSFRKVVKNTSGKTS

[40] = target: RPS6KA3 KD1 KD2 (human) (UniProt P51812)

MAPK11 (human), sequence (Q15759 whole entry, looked up): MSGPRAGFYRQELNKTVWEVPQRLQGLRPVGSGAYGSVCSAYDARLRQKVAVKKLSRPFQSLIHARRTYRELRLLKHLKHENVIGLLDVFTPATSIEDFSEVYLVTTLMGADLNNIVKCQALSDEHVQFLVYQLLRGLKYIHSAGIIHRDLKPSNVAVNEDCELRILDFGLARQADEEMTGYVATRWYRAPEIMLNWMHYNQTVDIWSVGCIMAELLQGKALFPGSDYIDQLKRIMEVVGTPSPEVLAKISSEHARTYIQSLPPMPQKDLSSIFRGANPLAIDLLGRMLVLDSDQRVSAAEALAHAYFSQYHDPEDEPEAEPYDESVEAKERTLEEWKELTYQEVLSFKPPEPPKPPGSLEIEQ
PRKD1 (human), sequence (Q15139 whole entry, looked up): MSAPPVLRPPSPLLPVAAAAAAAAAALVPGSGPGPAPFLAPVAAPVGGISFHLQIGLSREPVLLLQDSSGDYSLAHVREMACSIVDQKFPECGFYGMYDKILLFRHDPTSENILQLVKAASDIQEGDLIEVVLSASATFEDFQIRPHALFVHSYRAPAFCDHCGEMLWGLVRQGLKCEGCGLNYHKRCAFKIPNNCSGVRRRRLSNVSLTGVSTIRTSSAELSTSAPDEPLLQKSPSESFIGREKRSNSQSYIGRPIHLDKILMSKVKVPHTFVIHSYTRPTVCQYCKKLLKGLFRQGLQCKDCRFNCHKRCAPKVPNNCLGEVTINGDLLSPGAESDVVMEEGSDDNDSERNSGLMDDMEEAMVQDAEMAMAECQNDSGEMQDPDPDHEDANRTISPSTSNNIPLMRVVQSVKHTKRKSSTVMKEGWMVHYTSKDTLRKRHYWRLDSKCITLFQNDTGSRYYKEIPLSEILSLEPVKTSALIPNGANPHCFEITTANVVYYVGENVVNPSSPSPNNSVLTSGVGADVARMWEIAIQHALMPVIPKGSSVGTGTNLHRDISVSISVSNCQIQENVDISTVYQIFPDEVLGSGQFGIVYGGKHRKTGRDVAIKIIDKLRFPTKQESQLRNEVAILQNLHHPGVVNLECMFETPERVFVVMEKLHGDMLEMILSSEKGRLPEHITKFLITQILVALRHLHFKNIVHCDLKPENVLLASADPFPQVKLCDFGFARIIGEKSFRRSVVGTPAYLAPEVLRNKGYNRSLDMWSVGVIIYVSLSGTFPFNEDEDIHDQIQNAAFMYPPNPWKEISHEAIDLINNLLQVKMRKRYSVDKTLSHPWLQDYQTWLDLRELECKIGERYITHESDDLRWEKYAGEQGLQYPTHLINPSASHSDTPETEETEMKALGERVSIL

Row | SMILES | residual activity [1] [%] | residual activity [2] [%] | residual activity [3] [%] | residual activity [4] [%] | residual activity [5] [%] | residual activity [6] [%] | residual activity [7] [%] | residual activity [8] [%] | residual activity [9] [%] | residual activity [10] [%] | residual activity [11] [%] | residual activity [12] [%] | residual activity [13] [%] | residual activity [14] [%] | residual activity [15] [%] | residual activity [16] [%] | residual activity [17] [%] | residual activity [18] [%] | residual activity [19] [%] | residual activity [20] [%] | other results
1 | Cc1ccc(NC2=CC(=O)c3sc(C)nc3C2=O)cc1 | 96.2 | 90.2 | 120 | 101 | 90.7 | 102 | 102 | 99.2 | 93.5 | 92.6 | 86.5 | 104 | 98.9 | 98.2 | 90.2 | 96.6 | 109 | 88.1 | 94.5 | 93.2 | residual activity [21]: 102%; residual activity [22]: 119%; residual activity [23]: 105%; residual activity [24]: 100%; residual activity [25]: 97%; residual activity [26]: 80.6%; residual activity [27]: 83.9%; residual activity [28]: 85.8%; residual activity [29]: 95%; residual activity [30]: 110%; residual activity [31]: 101%; residual activity [32]: 94.2%; residual activity [33]: 101%; residual activity [34]: 98.3%; residual activity [35]: 92.8%; residual activity [36]: 100%; residual activity [37]: 110%; residual activity [38]: 98.2%; residual activity [39]: 100%; residual activity [40]: 104%
2 | O=c1cc(N2CCOCC2)oc2c1ccc1ccccc12 | 96 | 98.3 | 102 | 99.4 | 107 | 102 | 97.9 | 112 | 98.8 | 92.3 | 94.4 | 118 | 98.7 | 81.2 | 94.3 | 97.5 | 111 | 100 | 111 | 99.9 | residual activity [21]: 101%; residual activity [22]: 98.2%; residual activity [23]: 90.9%; residual activity [24]: 91.1%; residual activity [25]: 98.1%; residual activity [26]: 102%; residual activity [27]: 91.2%; residual activity [28]: 103%; residual activity [29]: 96.9%; residual activity [30]: 92%; residual activity [31]: 100%; residual activity [32]: 99.2%; residual activity [33]: 102%; residual activity [34]: 99.1%; residual activity [35]: 98.3%; residual activity [36]: 97.2%; residual activity [37]: 103%; residual activity [38]: 70.9%; residual activity [39]: 94.2%; residual activity [40]: 103%
3 | CC#CC(=O)Nc1cc2c(Nc3ccc(F)c(Cl)c3)ncnc2cn1 | 101 | 94.2 | 107 | 108 | 95.9 | 98.7 | 96.2 | 2.88 | 103 | 99.6 | 94.6 | 114 | 110 | 80.4 | 94.1 | 88.5 | 106 | 97.8 | 103 | 100 | residual activity [21]: 100%; residual activity [22]: 98.9%; residual activity [23]: 94.7%; residual activity [24]: 107%; residual activity [25]: 100%; residual activity [26]: 93.6%; residual activity [27]: 98.2%; residual activity [28]: 99.9%; residual activity [29]: 72.6%; residual activity [30]: 96.9%; residual activity [31]: 69.2%; residual activity [32]: 92.2%; residual activity [33]: 99%; residual activity [34]: 86.6%; residual activity [35]: 97.8%; residual activity [36]: 98.9%; residual activity [37]: 104%; residual activity [38]: 90.9%; residual activity [39]: 96.2%; residual activity [40]: 97.5%

Reference: the kinase profiling compilation of Christmann-Franck et al. (2016)
